Measurements as given in patent publication US9617244B2, “Antibacterial quinoline derivatives” (JANSSEN PHARMACEUTICA NV, priority 2012, dated 2017).
Converted amounts (≈) assume the structure as drawn.

Assays:
[1] = tested on: Staphylococcus aureus (ATCC29213); experiment: In-vitro anti-bacterial activity, microtitre plate assay, IC90 determination (non-mycobacterial strains); assay type: cell-based; conditions: 90% inhibitory concentration for bacterial growth, resazurin fluorescence; for IC90 STA B29213: 24 hours; for IC90: Staphylococcus aureus, ATCC29213, 24 h, read-out: IC90 STA B29213
Outline: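 Growth inhibition measured fluorometrically with resazurin (530/590 nm) after overnight 37 °C incubation under normal atmosphere. Bacteria added at roughly 100 TCID50 per well in Mueller-Hinton broth to five-fold compound dilution series; IC90 reported in μg/ml.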

[2] = tested on: Mycobacterium smegmatis (ATCC607); experiment: In-vitro anti-bacterial activity against strain M. Smegmatis ATCC607; assay type: cell-based; conditions: 90% inhibitory concentration for bacterial growth, Alamar Blue fluorescence; for IC90 MSM 607: 48 hours; for IC90: Mycolicibacterium smegmatis, ATCC607, 48 h, read-out: IC90 MSM 607
Outline: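 IC90 (μg/ml) derived from Alamar Blue fluorescence (530/590 nm) after 48 h growth at 37 °C under 5% CO2. About 250 CFU per well in Mueller-Hinton broth faced five-fold serial compound dilutions in BSA-containing wells.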

SMILES | IC90 STA B29213 [1] | IC90 MSM 607 [2] | IC90 [2] | IC90 [1]
O=c1[nH]c2ccc(Br)cc2cc1C(c1ccc(Cl)cc1)C1(O)CCNC(Cc2ccc(F)cc2F)C1 (stereo not shown) [Compound 315] | 3.84 µg/mL (≈ 6.69 µM) | 3.84 µg/mL (≈ 6.69 µM) | – | –
O=c1[nH]c2ccc(Br)cc2cc1C(c1ccc(Cl)cc1)C1(O)CCNC(Cc2ccc(F)cc2F)C1 (stereo not shown) [Compound 316] | 3.84 µg/mL (≈ 6.69 µM) | 3.05 µg/mL (≈ 5.31 µM) | – | –
O=c1[nH]c2ccc(Br)cc2cc1C(c1ccc(Cl)cc1)C1(O)CCNC(Cc2ccc(F)cc2F)C1 (stereo not shown) [Compound 317] | 1.92 µg/mL (≈ 3.35 µM) | 1.92 µg/mL (≈ 3.35 µM) | – | –
COc1nc2ccc(Br)cc2cc1C(c1ccc(Cl)cc1)C1(O)CCNC(Cc2ccc(F)cc2F)C1 (stereo not shown) [Compound 319] | 2.40 µg/mL (≈ 4.08 µM) | 2.40 µg/mL (≈ 4.08 µM) | – | –
O=c1[nH]c2ccc(Br)cc2cc1C(c1ccc(Cl)cc1)C1(O)CCNC(Cc2ccc(F)cc2F)C1 (stereo not shown) [Compound 321] | 15.33 µg/mL (≈ 26.7 µM) | 12.18 µg/mL (≈ 21.2 µM) | – | –
O=c1[nH]c2ccc(Br)cc2cc1C(c1ccc(Cl)cc1)C1(O)CCNC(Cc2ccc(F)cc2F)C1 (stereo not shown) [Compound 322] | 2.43 µg/mL (≈ 4.23 µM) | 3.85 µg/mL (≈ 6.71 µM) | – | –
O=c1[nH]c2ccc(Br)cc2cc1C(c1ccc(Cl)cc1)C1(O)CCNC(Cc2ccc(F)cc2F)C1 (stereo not shown) [Compound 323] | 7.68 µg/mL (≈ 13.4 µM) | 6.10 µg/mL (≈ 10.6 µM) | – | –
O=c1[nH]c2ccc(Br)cc2cc1C(c1ccc(Cl)cc1)C1(O)CCNC(Cc2ccc(F)cc2F)C1 (stereo not shown) [Compound 324] | 1.93 µg/mL (≈ 3.36 µM) | 3.43 µg/mL (≈ 5.98 µM) | – | –
COc1nc2ccc(S(C)(=O)=O)cc2cc1C(c1cccc(Cl)c1)C1(O)CCNC(Cc2ccc(F)cc2F)C1 (stereo not shown) [Compound 325] | >19.04 µg/mL | 19.04 µg/mL (≈ 32.4 µM) | – | –
COc1nc2ccc(S(C)(=O)=O)cc2cc1C(c1cccc(Cl)c1)C1(O)CCNC(Cc2ccc(F)cc2F)C1 (stereo not shown) [Compound 326] | 5.37 µg/mL (≈ 9.15 µM) | 4.78 µg/mL (≈ 8.14 µM) | – | –
CS(=O)(=O)c1ccc2[nH]c(=O)c(C(c3cccc(Cl)c3)C3(O)CCNC(Cc4ccc(F)cc4F)C3)cc2c1 (stereo not shown) [Compound 327] | >15.31 µg/mL | >15.31 µg/mL | – | –
CS(=O)(=O)c1ccc2[nH]c(=O)c(C(c3cccc(Cl)c3)C3(O)CCNC(Cc4ccc(F)cc4F)C3)cc2c1 (stereo not shown) [Compound 328] | 15.31 µg/mL (≈ 26.7 µM) | 12.16 µg/mL (≈ 21.2 µM) | – | –
CSc1ccc2[nH]c(=O)c(C(c3cccc(Cl)c3)C3(O)CCNC(Cc4ccc(F)cc4F)C3)cc2c1 (stereo not shown) [Compound 329] | 7.27 µg/mL (≈ 13.4 µM) | 7.27 µg/mL (≈ 13.4 µM) | – | –
COc1nc2ccc(F)cc2cc1C(c1ccc(Cl)cc1)C1(O)CCNC(c2ccc(F)cc2C)C1 (stereo not shown) [Compound 330] | 2.08 µg/mL (≈ 4.09 µM) | 1.04 µg/mL (≈ 2.04 µM) | – | –
COc1nc2ccc(F)cc2cc1C(c1ccc(Cl)cc1)C1(O)CCNC(c2ccc(F)cc2C)C1 (stereo not shown) [Compound 331] | 1.06 µg/mL (≈ 2.08 µM) | 0.94 µg/mL (≈ 1.85 µM) | – | –
COc1nc2ccc(F)cc2cc1C(c1ccc(Cl)cc1)C1(O)CCNC(c2ccc(F)cc2C)C1 (stereo not shown) [Compound 332] | 4.38 µg/mL (≈ 8.61 µM) | 2.20 µg/mL (≈ 4.32 µM) | – | –
CSc1ccc2[nH]c(=O)c(C(c3ccc(Cl)cc3)C3(O)CCNC(Cc4ccc(F)cc4)C3)cc2c1 (stereo not shown) [Compound 333] | 2.50 µg/mL (≈ 4.78 µM) | 3.53 µg/mL (≈ 6.75 µM) | – | –
CSc1ccc2[nH]c(=O)c(C(c3ccc(Cl)cc3)C3(O)CCNC(Cc4ccc(F)cc4)C3)cc2c1 (stereo not shown) [Compound 334] | 8.87 µg/mL (≈ 17 µM) | 7.04 µg/mL (≈ 13.5 µM) | – | –
O=c1[nH]c2ccc(Br)cc2cc1C(c1ccc(Cl)cc1)C1(O)CCNCC1Cc1cccc(F)c1 (stereo not shown) [Compound 336] | 3.51 µg/mL (≈ 6.31 µM) | 7.00 µg/mL (≈ 12.6 µM) | – | –
O=c1[nH]c2ccc(Br)cc2cc1C(c1ccc(Cl)cc1)C1(O)CCNC(Cc2ccc(F)cc2)C1 (stereo not shown) [Compound 341] | 2.36 µg/mL (≈ 4.25 µM) | – | 4.71 µg/mL (≈ 8.47 µM) | –
O=c1[nH]c2ccc(Br)cc2cc1C(c1ccc(Cl)cc1)C1(O)CCNC(Cc2ccc(F)cc2)C1 (stereo not shown) [Compound 342] | 7.46 µg/mL (≈ 13.4 µM) | 3.74 µg/mL (≈ 6.73 µM) | – | –
O=c1[nH]c2ccc(Cl)cc2cc1C(c1ccc(Cl)cc1)C1(O)CCNC(Cc2ccc(F)cc2)C1 (stereo not shown) [Compound 343] | – | – | 4.35 µg/mL (≈ 8.51 µM) | 6.9 µg/mL (≈ 13.5 µM)

SMILES | IC90 STA B29213 [1] | IC90 MSM 607 [2] | IC90 [2] | IC90 [1]
O=c1[nH]c2ccc(Cl)cc2cc1C(c1ccc(Cl)cc1)C1(O)CCNC(Cc2ccc(F)cc2)C1 (stereo not shown) [Compound 344] | 3.46 µg/mL (≈ 6.77 µM) | 8.68 µg/mL (≈ 17 µM) | – | –
COc1nc2ccc(Cl)cc2cc1C(c1ccc(Cl)cc1)C1(O)CCNC(Cc2ccc(F)cc2)C1 (stereo not shown) [Compound 345] | 4.38 µg/mL (≈ 8.34 µM) | 3.48 µg/mL (≈ 6.62 µM) | – | –
COc1nc2ccc(Cl)cc2cc1C(c1ccc(Cl)cc1)C1(O)CCNC(Cc2ccc(F)cc2)C1 (stereo not shown) [Compound 346] | 2.13 µg/mL (≈ 4.05 µM) | 1.69 µg/mL (≈ 3.22 µM) | – | –
COc1nc2ccc(Cl)cc2cc1C(c1ccc(Cl)cc1)C1(O)CCNC(Cc2ccc(F)cc2)C1 (stereo not shown) [Compound 347] | 4.27 µg/mL (≈ 8.13 µM) | 1.70 µg/mL (≈ 3.24 µM) | – | –
COc1nc2ccc(Cl)cc2cc1C(c1ccc(Cl)cc1)C1(O)CCNC(Cc2ccc(F)cc2)C1 (stereo not shown) [Compound 348] | 4.19 µg/mL (≈ 7.97 µM) | 1.67 µg/mL (≈ 3.18 µM) | – | –
CSc1ccc(C(c2cc3cc(Cl)ccc3[nH]c2=O)C2(O)CCNC(c3ccc(F)cc3C)C2)cc1 (stereo not shown) [Compound 349] | 7.04 µg/mL (≈ 13.5 µM) | 7.04 µg/mL (≈ 13.5 µM) | – | –
CSc1ccc(C(c2cc3cc(Cl)ccc3[nH]c2=O)C2(O)CCNC(c3ccc(F)cc3C)C2)cc1 (stereo not shown) [Compound 350] | 2.80 µg/mL (≈ 5.35 µM) | 1.77 µg/mL (≈ 3.38 µM) | – | –
COc1nc2ccc(Cl)cc2cc1C(c1ccc(SC)cc1)C1(O)CCNC(c2ccc(F)cc2C)C1 (stereo not shown) [Compound 353] | 2.18 µg/mL (≈ 4.06 µM) | 1.73 µg/mL (≈ 3.22 µM) | – | –
COc1nc2ccc(Cl)cc2cc1C(c1ccc(SC)cc1)C1(O)CCNC(c2ccc(F)cc2C)C1 (stereo not shown) [Compound 354] | 3.95 µg/mL (≈ 7.35 µM) | 3.14 µg/mL (≈ 5.85 µM) | – | –
C=CC1CC(O)(C(c2ccc(Cl)cc2)c2cc3cc(Br)ccc3[nH]c2=O)CCN1 (stereo not shown) [Compound 359] | – | – | 10.2 µg/mL (≈ 21.5 µM) | 12.8 µg/mL (≈ 27.1 µM)
C=CC1CC(O)(C(c2ccc(Cl)cc2)c2cc3cc(Br)ccc3[nH]c2=O)CCN1 (stereo not shown) [Compound 360] | 12.82 µg/mL (≈ 27.1 µM) | 6.42 µg/mL (≈ 13.6 µM) | – | –
C=CC1CC(O)(C(c2ccc(Cl)cc2)c2cc3cc(Br)ccc3[nH]c2=O)CCN1 (stereo not shown) [Compound 361] | 12.82 µg/mL (≈ 27.1 µM) | 6.42 µg/mL (≈ 13.6 µM) | – | –
C=CC1CC(O)(C(c2ccc(Cl)cc2)c2cc3cc(Br)ccc3[nH]c2=O)CCN1 (stereo not shown) [Compound 362] | 12.82 µg/mL (≈ 27.1 µM) | 10.18 µg/mL (≈ 21.5 µM) | – | –
O=c1[nH]c2ccc(Br)cc2cc1C(c1ccc(Cl)cc1)C1(O)CCNC(Cc2ccc(F)cc2)C1 (stereo not shown) [Compound 363] | 1.87 µg/mL (≈ 3.36 µM) | 3.74 µg/mL (≈ 6.73 µM) | – | –
O=c1[nH]c2ccc(Br)cc2cc1C(c1ccc(Cl)cc1)C1(O)CCNC(Cc2ccc(F)cc2)C1 (stereo not shown) [Compound 364] | 3.74 µg/mL (≈ 6.73 µM) | 2.97 µg/mL (≈ 5.34 µM) | – | –
O=c1[nH]c2ccc(Br)cc2cc1C(c1ccc(Cl)cc1)C1(O)CCNC(Cc2ccc(F)cc2)C1 (stereo not shown) [Compound 365] | 3.74 µg/mL (≈ 6.73 µM) | 3.74 µg/mL (≈ 6.73 µM) | – | –
COc1nc2ccc(Cl)cc2cc1C(c1ccc(S(C)(=O)=O)cc1)C1(O)CCNC(c2ccc(F)cc2C)C1 (stereo not shown) [Compound 368] | 17.71 µg/mL (≈ 31.1 µM) | 14.06 µg/mL (≈ 24.7 µM) | – | –
COc1nc2ccc(Cl)cc2cc1C(c1ccc(S(C)(=O)=O)cc1)C1(O)CCNC(c2ccc(F)cc2C)C1 (stereo not shown) [Compound 369] | 9.12 µg/mL (≈ 16 µM) | 4.57 µg/mL (≈ 8.03 µM) | – | –
COc1nc2ccc(F)cc2cc1C(c1ccc(Cl)cc1)C1(O)CCNC(Cc2ccccc2)C1 (stereo not shown) [Compound 370] | 3.09 µg/mL (≈ 6.29 µM) | 1.55 µg/mL (≈ 3.16 µM) | – | –
O=c1[nH]c2ccc(F)cc2cc1C(c1ccc(Cl)cc1)C1(O)CCNC(Cc2ccccc2)C1 (stereo not shown) [Compound 375] | >12.90 µg/mL | 12.90 µg/mL (≈ 27 µM) | – | –
O=c1[nH]c2ccc(F)cc2cc1C(c1ccc(Cl)cc1)C1(O)CCNC(Cc2ccccc2)C1 (stereo not shown) [Compound 376] | 3.24 µg/mL (≈ 6.79 µM) | 2.57 µg/mL (≈ 5.39 µM) | – | –
Cc1cc(F)ccc1C1CC(O)(C(c2ccc(S(C)(=O)=O)cc2)c2cc3cc(Cl)ccc3[nH]c2=O)CCN1 (stereo not shown) [Compound 377] | – | – | > 14.9 µg/mL | > 14.9 µg/mL
